± gives the expanded uncertainty stated by the source.
Settings: DTA

Glass transition temperature: -47.6 ± 5 °C
Structure (SMILES): CC(C)C[P+](C)(CC(C)C)CC(C)C.Cc1ccc(S(=O)(=O)[O-])cc1 [triisobutylmethylphosphonium p-toluenesulfonate]
